According to ChEMBL document CHEMBL1287811, “Two new cytotoxic labdane diterpenes from the rhizomes of Hedychium coronarium” (2010):

Tests used:
Assay type in all cases: functional
MCF7 = test: Growth inhibition of human MCF7 cells by Sulforhodamine B assay
A549 = test: Growth inhibition of human A549 cells by Sulforhodamine B assay; settings: for CC50: read-out: LC50 (the source's name)
SK-N-SH = test: Growth inhibition of human SK-N-SH cells by Sulforhodamine B assay
HeLa = test: Growth inhibition of human HeLa cells by Sulforhodamine B assay

SMILES	GI50 (MCF7) [µM]	LC50 (concentration killing 50% of cells) (MCF7) [µM]	GI50 (A549) [µM]	CC50 (A549) [µM]	GI50 (SK-N-SH) [µM]	LC50 (SK-N-SH) [µM]	GI50 (HeLa) [µM]	LC50 (HeLa) [µM]
CC1(C)CCC[C@]2(C)[C@@H](/C=C/C3=CCOC3=O)C(C=O)=CC(=O)[C@@H]12	69.9	> 100	18.5	45.9	38.7	48.5	76.9	> 100
CC1(C)CCC[C@]2(C)[C@@H](/C=C/C3=CC(=O)OC3)C(CO)=C(O)C(=O)[C@@H]12	12	15.4	26	48.7	12.1	19.3	79.7	> 100
CC1=CC(=O)[C@H]2C(C)(C)CCC[C@]2(C)[C@H]1/C=C/C1=CCOC1=O	15.7	19.8	21.7	39.6	8.2	20.8	83.6	> 100
CC1=CC(=O)[C@H]2C(C)(C)CCC[C@]2(C)C1/C=C/C1=CC(O)OC1=O (some centres not stated)	28.5	34.8	10.6	21.2	17.5	22.8	> 100	> 100
COc1cc(/C=C/C=O)ccc1O [CONIFERYL ALDEHYDE]	39.5	–	1.7	11.4	10.6	–	61.8	–
C=C1CC[C@H]2C(C)(C)CCC[C@]2(C)[C@H]1CCC1=CC(O)OC1=O (some centres not stated) [CORONARIN C]	32.6	40.7	4.8	9.5	25.8	33.7	36.3	45.9
C=C1CC[C@H]2C(C)(C)CCC[C@]2(C)[C@H]1C/C=C1/CC(OC)OC1=O (some centres not stated) [CORONARIN D METHYL ETHER]	25.3	31.6	30	71.3	13.6	19.1	> 100	> 100
C=C1CC[C@H]2C(C)(C)CCC[C@]2(C)[C@H]1C/C=C1/CC(O)OC1=O (some centres not stated) [CORONARIN D]	17.4	21.9	8	14	20.1	32	47	60.6
CC(C)(O)C1CC[C@@]2(C)CCC[C@@](C)(O)[C@@H]2C1 (some centres not stated) [CRYPTOMERIDIOL]	62.3	–	14.5	27.4	73.6	–	75.6	–
CCOC(=O)/C=C/c1ccc(O)c(OC)c1 [ETHYL FERULATE]	86.3	–	1.2	5.8	22.3	–	52.8	–
CC1=CC(=O)[C@H]2C(C)(C)CCC[C@]2(C)[C@H]1/C=C/c1ccoc1 [HEDYCHENONE]	14.9	19.8	7.4	14	11.6	17.2	63.2	81.5
COC(=O)Nc1nc2cc(C(=O)c3cccs3)ccc2[nH]1 [NOCODAZOLE]	< 0.1	–	< 0.1	< 0.1	0.66	–	0.75	–
C=C1C(C/C=C2\COC(=O)C2)[C@@]2(C)CCCC(C)(C)[C@@H]2C[C@@H]1O (some centres not stated) [PACOVATININ A]	44.7	55.6	15.1	36.2	54.8	59.9	62.1	80.7
